Data on one compound can be found in patent US11826373B2, “Methods for treatment of diseases” (Galera Labs, LLC, priority 2011, dated 2023).

Series [1] relates to beagle dogs. In words: 14-day repeat dose toxicity of GC4419 in dog. The series is classed as in vivo. As to conditions: beagle dogs, 2.5, 5.0 and 7.5 mg/kg IV over 15 minutes, 14 days. The procedure: (§1) GC4419 was evaluated in a GLP study in beagle dogs. GC4419 was administered intravenously (IV) over 15 minutes, once daily, to beagle dogs for 14 consecutive days. GC4419 was administered IV into the cephalic vein (4 mL/kg) to 3 groups of dogs (4 animals/sex/group) at dosages of 2.5, 5.0 and 7.5 mg/kg with a fourth group receiving vehicle (26 mM sodium bicarbonate in normal saline). […] All animals recovered from these effects. There were no test-article-related differences in group mean hematology, coagulation, or clinical chemistry parameters or urinalysis parameters after 14 days of treatment in any dosing group. At necropsy on day 15, there were neither test-article related gross macroscopic findings nor test-article-related differences in organ weight. No test-article-related histopathological lesions were present.

Series [2] is described as follows: 14-day repeat dose toxicity of GC4419 in dog. Type of series: in vivo, beagle dogs. Conditions: both sexes, dog, in vivo, beagle dogs, IV over 15 minutes once daily. As for the experimental part:
as §1

The subject of series [3] is radiation-induced oral mucositis. In words: Hamster model of radiation-induced oral mucositis. Type of series: in vivo, Male Syrian golden hamsters. Conditions: all doses (3-30 mg/kg) administered prior to irradiation. The procedure:
GC4403 and GC4419 were studied in a hamster model of oral mucositis (OM). Irradiation of the hamster cheek pouch induces lesions that are histologically similar to OM that which occurs clinically, and develop and resolve at a similar rate to radiation-induced OM in humans. […] The animals received 40 Gy radiation localized to the everted cheek pouch and were evaluated every second day for the development of inflammation at the radiation site. Inflammation was rated on a scale of 0 (normal) to 5 (total ulceration of pouch) by a trained observer, blinded to the treatment protocol.

Molecules are shown by their SMILES.

For `[Cl][Mn-5]1234([Cl])[n+]5c6cccc5C[NH+]1[C@H]1CCCC[C@@H]1[NH+]2CC[NH+]3[C@H]1CCCC[C@@H]1[NH+]4C6` (stereo partly drawn) [GC4419], in series [1], the mortality result is listed as “No animals died”. The compound further showed an NOAEL at 14 days in series [2] of 5 mg/kg/day. The “development of grade 3 or greater OM” value in series [3] is on record as “prevented the development of grade 3 or greater OM”.
